Source: patent US20090023769A1, “Organic Compounds” (NOVARTIS AG, priority 2006, published 2009)

System: monocrotaline reversal model of pulmonary hypertension
Assay: monocrotaline reversal model of pulmonary hypertension
Format: in vivo
Conditions: 3 mg/kg orally once daily from days 21-42; also dosed at 0.3 and 1 mg/kg
Procedure: The compound of formula II, namely 4-[8-(3-Fluorophenyl)-[1,7]naphthyridin-6-yl]-cyclohexanecarboxylic acid and being a representative example of compounds of formula I, is tested in the monocrotaline reversal model of pulmonary hypertension that is described by Schermuly et al in The Journal of Clinical Investigation 2005 October; 115(10):2811-21. The disclosure of that article is incorporated herein by way of reference.
4-[8-(3-Fluorophenyl)-[1,7]-naphthyridin-6-yl]-cyclohexanecarboxylic acid is dosed orally to the animals once daily from days 21-42 of the experiment at 0.3, 1 and 3 mg/kg.

O=C(O)C1CCC(c2cc3cccnc3c(-c3cccc(F)c3)n2)CC1 (stereo not shown) [4-[8-(3-Fluorophenyl)-[1,7]naphthyridin-6-yl]-cyclohexanecarboxylic acid]
shows efficacy: medial wall thickness | mortality | reversal of RV (right ventricular) pressure | reversal of RV hypertrophy
